Measured values published in patent US12540297B2, “Microfluidic device for cerebrovascular simulation and high-efficiency blood-brain barrier simulation system comprising same” (CELLARTGEN INC., priority 2018, dated 2026).

Columns and labels:
Cryptococcus neoformans = assay: Multi-organ hNVU chip fungal neuroaffinity with inositol supplementation; format: cell-based; conditions: 200 mg/ml inositol added only to liver unit, 1 day after inoculation
Experimental: NSC, PC and EC were seeded in the same manner as described above for fabrication of the hNVU chip system, and 8×10^6 Huh-7 cells/ml encapsulated in a BMEM hydrogel were seeded in a central channel of a liver unit of the multi-organ hNVU chip. CFW-labeled fungal cells were injected through an upper reservoir of the liver unit so that the fungi were not affected by factors secreted from a brain unit. Simultaneously with fungal inoculation, inositol (200 mg/ml, Duchefa, RV Haarlem, Netherlands) was added only to a lower channel of the liver unit.

[1] = system: EC layer of BBB in hNVU chip (NSC-EC-PC/flow group); assay: BBB permeability response to TNF-α exposure in hNVU chip; format: cell-based, human; conditions: 20 ng/ml TNF-α
Experimental: In order to evaluate BBB permeability, the hNVU chip was placed horizontally on the substrate, and both EC and medium channels were filled with PBS to match the surface levels and homogenize the pressure applied to a 3D matrix. […] Vascular permeability was evaluated by the flow rate of the solute across the EC barrier according to the reference method. […] Vascular barrier permeability (Pv) was induced by using the mean intensity of blood vessels (Iv) and tissues (NSC gel, IT) at two different time points t1 and t2, according to Equation 6 calculated by Image J software. Here, Δt, V and Asurface are approximated by the mean morphology of the EC layer in the hNVU chip in the 3D confocal image and represent the time between two images in a selected region of interest, the NSC gel volume, and the surface area of the EC layer, respectively.

Row | Compound | fungal invasion into the liver unit through the EC barrier (Cryptococcus neoformans) | level of neuroaffinity of C. neoformans (Cryptococcus neoformans) | increase of permeability of the EC layer to 70 kDa FITC-dextran [1]
1 | O[C@H]1[C@H](O)[C@@H](O)[C@H](O)[C@@H](O)[C@H]1O [inositol] | did not increase fungal invasion | reduced the level of neuroaffinity | 
2 | TNF-α |  |  | about 2.8 times
